Measured values: publication PMC10037499, “High-Throughput Screen Reveals the Structure–Activity Relationship of the Antimicrobial Lasso Peptide Ubonodin” (ACS Central Science, 2023)
Where a SMILES comes first, the peptide text is derived from it.

Assays:
[1] = test system: RNA polymerase (RNAP) in E. coli MC1061; experiment: High-throughput growth-based screen with NGS (enrichment value) for RNA polymerase inhibition; assay type: cell-based; parameters: key to Experimental observation (enrichment observed in the screen): Dropout: Many variants inhibit RNAP so strongly that they cannot be detected by NGS after IPTG induction (referred to as dropout variants); details: Table S4; variants whose MICs were tested
Description: The single mutant library was analyzed by NGS at multiple stages of sample preparation (Figure 2A) to track its evolution throughout the screen. Specifically, the frequency of each possible aa variant was computed at each stage by summing up counts for each distinct translated sequence and dividing by the total number of counts for all variants (eq S1, SI Methods). Since cells expressing an RNAP-inhibiting ubonodin variant will have growth defects relative to cells with a nontoxic variant, RNAP-inhibiting ubonodin variants are expected to decrease in frequency throughout the screen.
First, the naïve library (digested PCR products) was sequenced. These digested PCR products were cloned into the pUboABC backbone and transformed into a recA^– cloning strain. This plasmid library was sequenced again to capture any changes upon transformation of the library into E. coli. The change between the naïve library and the cloning transformation library was minimal (Figure S6A). This plasmid library was transformed into the screening strain MC1061, and the plasmid from resulting colonies was also sequenced. The library in MC1061 was grown up en masse in liquid culture to mid log phase, and a portion of the culture was plated. These colonies were scraped, then the plasmid was isolated and sequenced. Finally, the liquid culture was induced with IPTG, after which a portion of the culture was plated and the plasmid was isolated and sequenced. It is key to note that all samples from liquid cultures were plated prior to sequencing to ensure that only viable cells were sequenced. […] The rationale for sequencing at these five different stages was the possibility that leaky expression of uboA would affect the frequency of active mutants prior to IPTG induction. Indeed, we observed that the frequency of some uboA mutants dropped as soon as they were transformed into the screening strain MC1061 while the frequency of other mutants climbed (Figure 2B).
The behavior of the point variants (i.e., variants with a single aa substitution) was examined by calculating their enrichment values, the base-2 logarithm of the ratio of the variant’s frequency at a specific step of the screen to the variant’s frequency in the cloning transformation library (eq S3, Figure S6). The most relevant enrichment value for ubonodin activity is the comparison between the post-IPTG library and the cloning transformation library (Figure 2A). […] Many variants inhibit RNAP so strongly that they cannot be detected by NGS after IPTG induction (referred to as dropout variants). […] Variants with a stop codon mutation and variants containing an aa substitution at Tyr9 or Tyr27 (positions conserved in MccJ25 and shown to be crucial for RNAP inhibition, see Figure S7)[26] have positive enrichment values (1.2–1.7), serving as quality control for the screen (Figure 3A). Strikingly, 63% of point variants decreased in frequency, indicating a high tolerance to aa substitution. […] The positions with active variants are Asn11 through Ser24 in the loop and Asp3, Ser5, and Ala7 in the ring.
The single mutant and double mutant libraries were transformed into E. coli MC1061. Colonies were resuspended in media and subcultured into a larger culture. Aliquots of the cultures were sampled prior to and after induction with 10 μM IPTG and 100 μM IPTG and plated. After 16 h of incubation, the colonies were resuspended in media and plasmids were miniprepped.
Samples were PCR amplified with barcoded primers and combined such that double mutant library samples were over-represented compared to single mutant library samples to provide sufficient coverage of the larger double mutant library. Samples were sequenced using an Illumina MiSeq Micro 300nt and an Illumina NovaSeq 6000 Sequencing System. Downstream analysis of the data was conducted with Python, MATLAB, and R.
V to reduce genomic DNA contamination. One fragment was amplified with Xho I For Lib and a […]

B. cenocepacia AU0756 = test system: B. cenocepacia AU0756
Description: We proceeded to test the antimicrobial activity of the selected variants against two clinical isolates of the Bcc, B. cenocepacia AU0756 and B. cenocepacia AU24362, in broth microdilution assays. […] We revisited these measurements using broth microdilution assays following the Clinical & Laboratory Standards Institute (CLSI) standard.
Broth microdilution assays of the ubonodin variants were conducted using B. cenocepacia AU0756 and B. cenocepacia AU24362 with guidelines provided by the Clinical & Laboratory Standards Institute (CLSI).

E. coli MC1061 = experiment: Spot dilution assay of E. coli producing the ubonodin variant from pUboABC; assay type: cell-based; details: variant in pUboABC backbone in E. coli MC1061, induction with 100 μM IPTG, ten-fold serial dilutions, biological duplicates
Description: Cultures of E. coli MC1061 transformed with the appropriate plasmids were grown. Aliquots of the cultures were sampled prior to and after induction with 100 μM IPTG, and 10-fold serial dilutions were plated. […]
All cloning was conducted by PCR amplification (using Q5 polymerase), restriction digestion, ligation, (using T4 DNA ligase), and transformation into chemically competent E. coli XL1-Blue. All cloning with a pUboABC backbone was done by plating transformation mixt ures onto Lysogeny Broth (LB) plates supplemented with 100 μg/mL ampicillin and 0.2% w/v glucose, and colonies were inoculated into LB media supplemented with 100 μ g/mL ampicillin and 0.2% w/v glucose to suppress any leaky expression. Cloning for all other plasmid constructs was done by plating transformation mixtures onto Lysogeny Broth (LB) plates supplemented with 100 μ g/ m L ampicillin, and colonies were inoculated into LB media supplemented with 100 μ g/ m L ampicillin.
Plasmids were extracted using Qiagen QIAprep Spin Miniprep Kit and sequence verified using Sanger sequencing. All primer sequences are listed in Table S7, and all plasmid constructs are […]
pUboABC was cloned by amplifying pWC99 with pQE-80 NheI For and pAT8 Nco I Rev.
The amplicon was ligated into pWC99 digested with Nhe I and Nco I. pUboBC was cloned by digesting pUboABC with Nh e I and Nco I and ligating that fragment into pQE-80 digested with Nhe I and Nco I. pUboABC S5H I16P and pUboABCD S5H I16P were cloned with overlap PCR using pWC99 as the template. One fragment was amplified with pQE-80 EcoRI For and S5H I16P Rev v2 and the second fragment was amplified with S5H I16P For v2 and pQE-80 HindII I Rev. […]
All remaining plasmid constructs were cloned with overlap PCR. One fragment was amplified with Xho I For Lib and a mutagenic reverse primer and the second fragment was amplified with NheI Rev Lib and a mutagenic forward primer. The templates and mutagenic […]
The fragments were joined with a second round of PCR and amplified with XhoI For Lib and NheI Rev Lib. Amplicons were ligated into the appropriate plasmid backbone digested with Xho I and Nhe I-HF. The plasmid backbones […]
The appropriate plasmid was transformed into electrocompetent E. coli MC1061, plated onto LB plates supplemented with 100 μ g/ m L ampicillin and 0.2% w/v glucose, and incubated at 30 °C for 16 hours. Colonies were inoculated into LB media supplemented with 100 μ g/ m L ampicillin and 0.2% w/v glucose and grown at 37 °C for 16 hours. These cultures were sub-cultured to an OD600 of 0.02 in 50 mL of LB media supplemented with 100 μg/mL ampicillin in a 250 mL flask. Once the OD600 reached 0.3, a 1 mL aliquot was sampled immediately prior to inducing the cultures with 100 μM isopropyl β-D-1-thiogalactopyranoside (IPTG). The aliquot was washed with Phosphate-Buffered Saline (PBS) two times and ten-fold serial dilutions were spotted onto LB plates supplemented with 100 μ g/ m L ampicillin and 0.2% w/v glucose. For each following timepoint, a 1 mL sample of each culture was withdrawn, washed with PBS two times, and ten- […]
fold serial dilutions were spotted onto LB plates supplemented with 100 μ g/m L ampicillin and 0.2% w/v glucose. Plates were incubated for 16 hours at 37 °C before imaging. […]
250 mL flask. Ten-fold serial dilutions of the culture were plated onto LB plates supplemented with 100 μ g/ m L ampicillin and 0.2% w/v glucose. The cultures were then grown at 37 °C, and once the OD600 reached 0.3, a 1 mL sample of the culture was withdrawn immediately before the cultures were induced with 10 μM or 100 μM IPTG and returned to grow longer. […]
All plates were incubated at 37 °C for 16 hours, after which the number of colonies was counted. Three biological replicates of this assay were done.
Co-Culture of E. coli MC1061 pUboABC and E. coli MC1061 pUboBC pUboABC (0.9 ng) and pUboBC (0.1 ng) were transformed into electrocompetent E. coli MC1061 with a one- hour outgrowth at 37 °C in LB media supplemented with 0.2% w/v glucose. […]

| Structure (SMILES) | Experimental observation (enrichment observed in the screen) [1] | B. cenocepacia AU0756 MIC (B. cenocepacia AU0756) [µM] | Inhibits Growth (E. coli MC1061) |
| --- | --- | --- | --- |
| CC[C@H](C)[C@@H]1NC(=O)[C@H](CO)NC(=O)CNC(=O)[C@H](CC(=O)O)NC(=O)CNC(=O)CNC(=O)CC[C@@H](C(=O)N[C@@H](Cc2ccc(O)cc2)C(=O)N[C@@H](Cc2ccccc2)C(=O)N[C@@H](CC(N)=O)C(=O)N[C@@H](CCCNC(=N)N)C(=O)N2CCC[C@H]2C(=O)N[C@@H](CC(N)=O)C(=O)N[C@@H](Cc2c[nH]cn2)C(=O)N[C@H](C(=O)N[C@@H](Cc2c[nH]cn2)C(=O)N[C@@H](CC(=O)O)C(=O)N[C@@H](Cc2c[nH]c3ccccc23)C(=O)N[C@@H](CCC(N)=O)C(=O)N[C@H](C(=O)N[C@@H](CCSC)C(=O)N[C@@H](CC(=O)O)C(=O)N[C@@H](CO)C(=O)NCC(=O)N[C@@H](Cc2ccc(O)cc2)C(=O)N[C@@H](Cc2ccc(O)cc2)C(=O)NCC(=O)O)[C@@H](C)CC)[C@@H](C)CC)NC(=O)[C@H](C)NC1=O [M14N] (HELM PEPTIDE1{G.G.D.G.S.I.A.E.Y.F.N.R.P.N.H.I.H.D.W.Q.I.M.D.S.G.Y.Y.G}$PEPTIDE1,PEPTIDE1,1:R1-8:R3$$$V2.0) | -4.7 | 0.5 to 2 | Yes |
| CC[C@H](C)[C@@H]1NC(=O)[C@H](CO)NC(=O)CNC(=O)[C@H](CC(=O)O)NC(=O)CNC(=O)CNC(=O)CC[C@@H](C(=O)N[C@@H](Cc2ccc(O)cc2)C(=O)N[C@@H](Cc2ccccc2)C(=O)N[C@@H](CC(N)=O)C(=O)N[C@@H](Cc2ccccc2)C(=O)N2CCC[C@H]2C(=O)N[C@@H](CCSC)C(=O)N[C@@H](Cc2c[nH]cn2)C(=O)N[C@H](C(=O)N[C@@H](Cc2c[nH]cn2)C(=O)N[C@@H](CC(=O)O)C(=O)NCC(=O)N[C@@H](CCC(N)=O)C(=O)N[C@H](C(=O)N[C@@H](CCSC)C(=O)N[C@@H](CC(=O)O)C(=O)N[C@@H](CO)C(=O)NCC(=O)N[C@@H](Cc2ccc(O)cc2)C(=O)N[C@@H](Cc2ccc(O)cc2)C(=O)NCC(=O)O)[C@@H](C)CC)[C@@H](C)CC)NC(=O)[C@H](C)NC1=O [R12F W19G] (HELM PEPTIDE1{G.G.D.G.S.I.A.E.Y.F.N.F.P.M.H.I.H.D.G.Q.I.M.D.S.G.Y.Y.G}$PEPTIDE1,PEPTIDE1,1:R1-8:R3$$$V2.0) | Dropout | >8 | Yes |
| CC[C@H](C)[C@@H]1NC(=O)[C@H](CO)NC(=O)CNC(=O)[C@H](CC(=O)O)NC(=O)CNC(=O)CNC(=O)CC[C@@H](C(=O)N[C@@H](Cc2ccc(O)cc2)C(=O)N[C@@H](Cc2ccccc2)C(=O)N[C@@H](CC(N)=O)C(=O)N[C@@H](Cc2ccccc2)C(=O)N2CCC[C@H]2C(=O)N[C@@H](CCSC)C(=O)N[C@@H](Cc2c[nH]cn2)C(=O)N[C@H](C(=O)N[C@@H](Cc2c[nH]cn2)C(=O)N[C@@H](CC(=O)O)C(=O)N[C@@H](Cc2c[nH]c3ccccc23)C(=O)N[C@@H](CCC(N)=O)C(=O)N[C@H](C(=O)N[C@@H](CCSC)C(=O)N[C@@H](CC(=O)O)C(=O)N[C@@H](CO)C(=O)NCC(=O)N[C@@H](Cc2ccc(O)cc2)C(=O)N[C@@H](Cc2ccc(O)cc2)C(=O)NCC(=O)O)[C@@H](C)CC)[C@@H](C)CC)NC(=O)[C@H](C)NC1=O [R12F] (HELM PEPTIDE1{G.G.D.G.S.I.A.E.Y.F.N.F.P.M.H.I.H.D.W.Q.I.M.D.S.G.Y.Y.G}$PEPTIDE1,PEPTIDE1,1:R1-8:R3$$$V2.0) | -5.3 | 2 | Yes |
| CC[C@H](C)[C@H](NC(=O)[C@H](Cc1c[nH]cn1)NC(=O)[C@H](CCSC)NC(=O)[C@@H]1CCCN1C(=O)[C@@H](NC(=O)[C@H](CC(N)=O)NC(=O)[C@H](Cc1ccccc1)NC(=O)[C@H](Cc1ccc(O)cc1)NC(=O)[C@@H]1CCC(=O)NCC(=O)NCC(=O)N[C@@H](CC(=O)O)C(=O)NCC(=O)N[C@@H](CO)C(=O)N[C@@H]([C@@H](C)CC)C(=O)N[C@@H](C)C(=O)N1)C(C)C)C(=O)NCC(=O)N[C@@H](CC(=O)O)C(=O)N[C@@H](Cc1c[nH]c2ccccc12)C(=O)N[C@@H](CCC(N)=O)C(=O)N[C@H](C(=O)N[C@@H](CCSC)C(=O)N[C@@H](CC(=O)O)C(=O)N[C@@H](CO)C(=O)NCC(=O)N[C@@H](Cc1ccc(O)cc1)C(=O)N[C@@H](Cc1ccc(O)cc1)C(=O)NCC(=O)O)[C@@H](C)CC [R12V H17G] (HELM PEPTIDE1{G.G.D.G.S.I.A.E.Y.F.N.V.P.M.H.I.G.D.W.Q.I.M.D.S.G.Y.Y.G}$PEPTIDE1,PEPTIDE1,1:R1-8:R3$$$V2.0) | Dropout | 0.25 to 0.5 | Yes |
